Source: US11591596B2, “Compounds and compositions including phosphorothioated oligodeoxynucleotide, and methods of use thereof” (City of Hope, priority 2015, dated 2023)

Columns and labels:
[1] = tested on: miR-126; experiment: In vitro and in vivo uptake and miR-126 silencing (K562, HUVEC, CD34+CD38- cells, murine CML BM, LTHSC, EC, mice); parameters: species or system human and mouse; details: 500 nM in vitro; 5 mg/kg iv in vivo
Protocol: FIGS. 23A-23K. […] Uptake test measured by flow cytometric analysis at 4 hours (FIG. 23A) and 24 hours (FIG. 23B) after addition of CpG-miR-126 inhibitor-Cy3 (CpG), Ab-NPs (Ab-NP) or TF-NPs (TF-NP) containing miR-126 inhibitor-Cy3, or naked miR-126 inhibitor-Cy3 (labeled as Control in FIGS. 23A and B) in K562 cells. The experiment was replicated twice. miR-126 expression in K562 was measured by Q-RT-PCR at 24 hours (n=3) (FIG. 23C). Uptake in HUVEC (FIG. 23D), human normal (FIG. 23E) and CML (FIG. 23F) CD34^+CD38^− cells at 4 hours after addition of CpG-miR-126 inhibitor-Cy3 (500 nM) was measured by flow cytometry. miR-126 expression in HUVEC (FIG. 23G), normal (FIG. 23H) and CML (FIG. 23I) CD34^+CD38^− cells treated with CpG-miR-126 inhibitor (500 nM) for 24 hours is shown (n=4). […]
FIGS. 25A-25O. […] Murine CML BM, LTHSC and EC cells were treated with CpG-miR-126 inhibitor-Cy3 (500 nM) for 4 hours and then Cy3^+ cells were detected by flow cytometry (FIG. 25A). The cells were also collected at 24 hours and miR-126 expression was determined by Q-RT-PCR (FIG. 25B). Cell cycling was measured by EDU staining at 72 hours after addition of CpG-miR-126 inhibitor in CML BM LTHSC. […] CML mice were treated with CpG-miR-126 inhibitor-Cy3 with one dose (5 mg/kg, iv injection) and Cy3 uptake in BM, LTHSC and EC was measured at 16 hours after treatment by flow cytometry (FIG. 25D). […]

[2] = tested on: CML (K562) and AML cell lines (KG1A, MV4-11, Molm13, NB4, OCI and HL60); experiment: Uptake in AML and CML cell lines, Cy3 by flow cytometry; type: cell-based, human; details: 4 hours
Protocol: FIGS. 3A-3G are flow cytometry histograms showing results of CpG-anti-miR-126 uptake in AML and CML cell lines. Cells were cultured with miR126-inhibitor-Cy3 (Cy3-200 nM0, human CD45 (Ab-200 nM) or Transferrin (TF-200 nM)-conjugated nanoparticles (NP) containing antagomiR-126-Cy3, CpG-miR126 inhibitor-Cy3 (CpG-Cy3-200 nM and 500 nM) for 4 hours, then uptake was analyzed by measuring Cy3 expression in these cells by flow cytometry. FIG. 3A is a histogram showing uptake in K562 cells. FIG. 3B is a histogram showing uptake in KG1A AML cells. FIG. 3C is a histogram showing uptake in MV4-11 AML cells. FIG. 3D is a histogram showing uptake in Molm13 AML cells. FIG. 3E is a histogram showing uptake in NB4 AML cells. FIG. 3F is a histogram showing uptake in OCI AML cells. FIG. 3G is a histogram showing uptake in HL60 AML cells.
CML (K562) (FIG. 3A) and AML cell lines (KG1A, MV4-11, Molm13, NB4, OCI and HL60) (FIGS. 3B-3G) were cultured with anti-miR126 inhibitor-Cy3 (Cy3-200 nM) alone, human CD45 (Ab-200 nM) or Transferrin (TF-200 nM)-conjugated nanoparticles (NP) containing anti-miR126-Cy3 or unformulated CpG-anti-miR126 inhibitor—Cy3 in two concentrations (200 nM and 500 nM) for 4 hours, the uptake was analyzed by measuring Cy3 expression in these cells by flow cytometry.

5′ G*G*T GCA TCG ATG CAGG*G*G* G*G (SEQ ID NO: 1) xxxxx mCmGmC mAmUmU mAmUmU mAmCmU mCmAmC mGmGmU mAmCmG mA (SEQ ID NO: 17) 3′ [CpG-anti-miR126]
uptake and gene silencing effects [1]: Effective in vitro and in vivo uptake and gene silencing effects
internalization (Cy3 uptake) ([2]; 200 nM and 500 nM, no transfection reagents): quickly and dose-dependently internalized
level of internalization compared with other oligonucleotides including NP-formulated anti-miR126 inhibitor ([2]; absence of any transfection reagents): exceeded that of all other oligonucleotides
